According to patent publication US11780839B2, “Compounds for treating Huntington's disease” (PTC THERAPEUTICS, INC., priority 2018, dated 2023):

Tested on: Endogenous Huntingtin Protein
Assay: Endogenous Huntingtin Protein Assay (ELISA-based Meso Scale Discovery electrochemiluminescence)
Format: cell-based
Settings: MSD electrochemiluminescence, Table 1
Protocol: Compounds of Formula (I) or Formula (II) were tested using the Meso Scale Discovery (MSD) Assay provided in International Application No. PCT/US2016/066042, filed on Dec. 11, 2016 and claiming priority to U.S. Provisional Application 62/265,652 filed on Dec. 10, 2015, the entire contents of which are incorporated herein by reference.
The Endogenous Huntingtin Protein assay used in Example 1 was developed using the ELISA-based MSD electrochemiluminescence assay platform.
Endogenous Huntingtin Protein Assay
Meso Scale Discovery (MSD) 96-well or 384-well plates were coated overnight at 4° C. with MW1 (expanded polyglutamine) or MAB2166 monoclonal antibody (for capture) at a concentration of 1 μg/mL in PBS (30 μL per well). Plates were then washed three times with 300 μL wash buffer (0.05% Tween-20 in PBS) and blocked (100 μL blocking buffer; 5% BSA in PBS) for 4-5 hours at room temperature with rotational shaking and then washed three times with wash buffer.
Samples (25 μL) were transferred to the antibody-coated MSD plate and incubated overnight at 4° C. After removal of the lysates, the plate was washed three times with wash buffer, and 25 μL of #5656S (Cell signaling; rabbit monoclonal) secondary antibody (diluted to 0.25 μg/mL in 0.05% Tween-20 in blocking buffer) was added to each well and incubated with shaking for 1 Hour at room temperature. Following incubation with the secondary antibody, the wells were rinsed with wash buffer after which 25 μL of goat anti-rabbit SULFO TAG secondary detection antibody (required aspect of the MSD system) (diluted to 0.25 μg/mL in 0.05% Tween-20 in blocking buffer) was added to each well and incubated with shaking for 1 hour at room temperature. After rinsing three times with wash buffer, 150 μL of read buffer T with surfactant (MSD) were added to each empty well, and the plate was imaged on a SI 6000 imager (MSD) according to manufacturers' instructions provided for 96- or 384-well plates.

How did the IC50 turn out when “2-(3-{[(3S,4S)-3-fluoro-2,2,6,6-tetramethylpiperidin-4-yl]amino}-1,2,4-triazin-6-yl)-5-(1H-imidazol-1-yl)phenol [Cpd 238]” was run?
Its IC50 is ≤ 100 nM.

“2-{3-{[(2S)-2-aminopropyl](methyl)amino}-1,2,4-triazin-6-yl)-5-(1H-pyrazol-4-yl)phenol [Cpd 190]” was tested. Which IC50 did it give?
Its IC50 is ≤ 100 nM.

With “5-(5-fluoro-1H-pyrazol-4-yl)-2-{6-[methyl(2,2,6,6-tetramethylpiperidin-4-yl)amino]-1,2,4-triazin-3-yl}phenol [Cpd 191]” as the compound, how does the IC50 read?
The IC50 was ≤ 100 nM.

“5-[1-(^2H3)methyl-1H-pyrazol-4-yl]-2-{6-[methyl(2,2,6,6-tetramethylpiperidin-4-yl)amino]-1,2,4-triazin-3-yl}phenol [Cpd 192]” was tested. Which IC50 did it give?
The IC50 was 100 to 500 nM.

How did the IC50 turn out when `Cc1cnc(-c2ccc(-c3cnc(N(C)C4CC(C)(C)NC(C)(C)C4)nn3)c(O)c2)o1` [Cpd 1, 5-(5-methyl-1,3-oxazol-2-yl)-2-{3-[methyl(2,2,6,6-tetramethylpiperidin-4-yl)amino]-1,2,4-triazin-6-yl}phenol] was run?
The IC50 was > 500 nM.

`COc1cc(-c2ccc(-c3cnc(N(C)C4CC(C)(C)NC(C)(C)C4)nn3)c(O)c2)ncn1` [Cpd 2, 5-(6-methoxypyrimidin-4-yl)-2-{3-[methyl(2,2,6,6-tetramethylpiperidin-4-yl)amino]-1,2,4-triazin-6-yl}phenol] was tested. Which IC50 did it give?
The IC50 was ≤ 100 nM.

How did the IC50 turn out when `COc1cc(-c2ccc(-c3cnc(N(C)C4CC(C)(C)NC(C)(C)C4)nn3)c(O)c2)ccn1` [Cpd 3, 5-(2-methoxypyridin-4-yl)-2-{3-[methyl(2,2,6,6-tetramethylpiperidin-4-yl)amino]-1,2,4-triazin-6-yl}phenol] was run?
Its IC50 is ≤ 100 nM.

With `CN(c1ncc(-c2ccc(-c3c[nH]nn3)cc2O)nn1)C1CC(C)(C)NC(C)(C)C1` [Cpd 4, 2-{3-[methyl(2,2,6,6-tetramethylpiperidin-4-yl)amino]-1,2,4-triazin-6-yl}-5-(1H-1,2,3-triazol-4-yl)phenol] as the compound, how does the IC50 read?
Its IC50 is ≤ 100 nM.

Which IC50 does the source give for `CN(c1ncc(-c2ccc(-c3ccnc(O)c3)cc2O)nn1)C1CC(C)(C)NC(C)(C)C1` [Cpd 5, 4-(3-hydroxy-4-{3-[methyl(2,2,6,6-tetramethylpiperidin-4-yl)amino}-1,2,4-triazin-6-yl}phenyl)pyridin-2-ol] here?
The IC50 was ≤ 100 nM.

How did the IC50 turn out when `Cc1n[nH]cc1-c1ccc(-c2cnc(N(C)C3CC(C)(C)NC(C)(C)C3)nn2)c(O)c1` [Cpd 6, 5-(3-methyl-1H-pyrazol-4-yl)-2-{3-[methyl(2,2,6,6-tetramethylpiperidin-4-yl)amino]-1,2,4-triazin-6-yl}phenol] was run?
The IC50 was ≤ 100 nM.

With `CN(c1ncc(-c2ccc(-c3ncco3)cc2O)nn1)C1CC(C)(C)NC(C)(C)C1` [Cpd 7, 2-{3-[methyl(2,2,6,6-tetramethylpiperidin-4-yl)amino]-1,2,4-triazin-6-yl}-5-(1,3-oxazol-2-yl)phenol] as the compound, how does the IC50 read?
Its IC50 is ≤ 100 nM.

For `CN(c1ncc(-c2ccc(-c3ccncc3)cc2O)nn1)C1CC(C)(C)NC(C)(C)C1` [Cpd 8, 2-{3-[methyl(2,2,6,6-tetramethylpiperidin-4-yl)amino]-1,2,4-triazin-6-yl}-5-(pyridin-4-yl)phenol], which IC50 is on record?
Its IC50 is ≤ 100 nM.

With `Cc1cc(-c2ccc(-c3cnc(N(C)C4CC(C)(C)NC(C)(C)C4)nn3)c(O)c2)ccn1` [Cpd 9, 5-(2-methylpyridin-4-yl)-2-{3-[methyl(2,2,6,6-tetramethylpiperidin-4-yl)amino]-1,2,4-triazin-6-yl}phenol] as the compound, how does the IC50 read?
The IC50 was ≤ 100 nM.

How did the IC50 turn out when `Cc1cn(-c2ccc(-c3cnc(N(C)C4CC(C)(C)NC(C)(C)C4)nn3)c(O)c2)cn1` [Cpd 10, 5-(4-methyl-1H-imidazol-1-yl)-2-{3-[methyl(2,2,6,6-tetramethylpiperidin-4-yl)amino]-1,2,4-triazin-6-yl}phenol] was run?
Its IC50 is ≤ 100 nM.

`CC1(C)CC(Oc2ncc(-c3ccc(-c4cn[nH]c4)cc3O)nn2)CC(C)(C)N1` [Cpd 11, 5-(1H-pyrazol-4-yl)-2-{3-[(2,2,6,6-tetramethylpiperidin-4-yl)oxy]-1,2,4-triazin-6-yl}phenol] was tested. Which IC50 did it give?
The IC50 was ≤ 100 nM.

Which IC50 does the source give for `CN(c1ncc(-c2ccc(-c3c[nH]nc3F)cc2O)nn1)C1CC(C)(C)NC(C)(C)C1` [Cpd 12, 5-(3-fluoro-1H-pyrazol-4-yl)-2-{3-[methyl(2,2,6,6-tetramethylpiperidin-4-yl)amino]-1,2,4-triazin-6-yl}phenol] here?
The IC50 was ≤ 100 nM.

For `CC1(C)CC(Nc2ncc(-c3ccc(-c4cn[nH]c4)cc3O)nn2)CC(C)(C)N1` [Cpd 13, 5-(1H-pyrazol-4-yl)-2-{3-[(2,2,6,6-tetramethylpiperidin-4-yl)amino]-1,2,4-triazin-6-yl}phenol], which IC50 is on record?
Its IC50 is ≤ 100 nM.

Which IC50 does the source give for `[2H]C([2H])([2H])n1cc(-c2ccc(-c3cnc(N(C)C4CC(C)(C)NC(C)(C)C4)nn3)c(O)c2)cn1` [Cpd 14, 5-[1-(^2H3)methyl-1H-pyrazol-4-yl]-2-{3-[methyl(2,2,6,6-tetramethylpiperidin-4-yl)amino]-1,2,4-triazin-6-yl}phenol] here?
Its IC50 is ≤ 100 nM.

With `CN(c1ncc(-c2ccc(-c3cn[nH]c3)cc2O)nn1)C1CC(C)(C)NC(C)(C)C1` [Cpd 15, 2-{3-[methyl(2,2,6,6-tetramethylpiperidin-4-yl)amino]-1,2,4-triazin-6-yl}-5-(1H-pyrazol-4-yl)phenol] as the compound, how does the IC50 read?
The IC50 was ≤ 100 nM.

`CN(c1ncc(-c2ccc(-c3cnn(C)c3)cc2O)nn1)C1CC(C)(C)NC(C)(C)C1` [Cpd 16] was tested. Which IC50 did it give?
The IC50 was ≤ 100 nM.

With `CN(c1ncc(-c2ccc(-n3cccn3)cc2O)nn1)C1CC(C)(C)NC(C)(C)C1` [Cpd 17, 2-{3-[methyl(2,2,6,6-tetramethylpiperidin-4-yl)amino]-1,2,4-triazin-6-yl}-5-(1H-pyrazol-1-yl)phenol] as the compound, how does the IC50 read?
The IC50 was 100 to 500 nM.

With `CN(c1ncc(-c2ccc(-c3cn(C)nc3F)cc2O)nn1)C1CC(C)(C)NC(C)(C)C1` [Cpd 18, 5-(3-fluoro-1-methyl-1H-pyrazol-4-yl)-2-{3-[methyl(2,2,6,6-tetramethylpiperidin-4-yl)amino]-1,2,4-triazin-6-yl}phenol] as the compound, how does the IC50 read?
The IC50 was ≤ 100 nM.

How did the IC50 turn out when `CN(c1ncc(-c2ccc(-c3cn[nH]c3)cc2O)nn1)C1CCNCC1` [Cpd 19, 2-{3-[methyl(piperidin-4-yl)amino]-1,2,4-triazin-6-yl}-5-(1H-pyrazol-4-yl)phenol] was run?
The IC50 was ≤ 100 nM.

Which IC50 does the source give for `CN(c1ncc(-c2ccc(-c3cn[nH]c3)cc2O)nn1)C1CCCNC1` (stereo not shown) [Cpd 20, 2-{3-[methyl(piperidin-3-yl)amino]-1,2,4-triazin-6-yl}-5-(1H-pyrazol-4-yl)phenol] here?
Its IC50 is > 500 nM.

Which IC50 does the source give for `CN(c1ncc(-c2ccc(-c3cn[nH]c3)cc2O)nn1)C1C[C@H]2CC[C@@H](C1)N2` (stereo partly drawn) [Cpd 21, 2-(3-{[(1R,3S,5S)-8-azabicyclo[3.2.1]octan-3-yl](methyl)amino}-1,2,4-triazin-6-yl)-5-(1H-pyrazol-4-yl)phenol] here?
The IC50 was ≤ 100 nM.

Which IC50 does the source give for `CN(c1ncc(-c2ccc(-c3cn[nH]c3)cc2O)nn1)C1C[C@H]2CCC[C@@H](C1)N2` (stereo partly drawn) [Cpd 22, 2-(3-{[(1R,3S,5S)-9-azabicyclo[3.3.1]nonan-3-yl](methyl)amino}-1,2,4-triazin-6-yl)-5-(1H-pyrazol-4-yl)phenol] here?
The IC50 was ≤ 100 nM.

With `CN(c1ncc(-c2ccc(-c3cnn(C)n3)cc2O)nn1)C1CC(C)(C)NC(C)(C)C1` [Cpd 23, 2-{3-[methyl(2,2,6,6-tetramethylpiperidin-4-yl)amino]-1,2,4-triazin-6-yl}-5-(2-methyl-2H-1,2,3-triazol-4-yl)phenol] as the compound, how does the IC50 read?
Its IC50 is ≤ 100 nM.

`CN(c1cnc(-c2ccc(-c3cn[nH]c3)cc2O)nn1)C1CC(C)(C)NC(C)(C)C1` [Cpd 24, 2-{6-[methyl(2,2,6,6-tetramethylpiperidin-4-yl)amino]-1,2,4-triazin-3-yl}-5-(1H-pyrazol-4-yl)phenol] was tested. Which IC50 did it give?
The IC50 was 100 to 500 nM.
